Holding throughout (type): in vivo
For one assay, the system named is Echinochloa oryzicola. The experiment in a line: Herbicidal activity by paddy field soil treatment (Test Example 1). Also on record: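 index 0 to 10 in 10% steps of herbicidal effect with 10 meaning complete death and 0 below 10%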. The conditions noted are these: 1000 g of effective component per hectare, evaluated on day 21 after the treatment, criteria of Table 72. In a few lines: (§1)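 Pre-emergence water-surface application one day after sowing into flooded (3 cm) paddy soil, dose 1000 g effective component per hectare from a diluted wettable powder. Plants kept in greenhouse and rated for herbicidal effect 21 days post-treatment.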

The test system of a further assay is Monochoria vaginalis. Described as above. The conditions noted are these: 1000 g of effective component per hectare, evaluated on day 21 after the treatment, criteria of Table 72. Also on record: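 index 0 to 10 in 10% steps of herbicidal effect with 10 meaning complete death and 0 below 10%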. In a few lines: as §1
A further assay has as its system Scirpus juncoides Rocxb. The assay is described as above. The conditions noted are these: applied on water surface, 1000 g of effective component per hectare, day 21 after the treatment. Also on record: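 index 0 to 10 in 10% steps of herbicidal effect with 10 meaning complete death and 0 below 10%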. The method in brief: as §1
Assay [1] concerns A. retroflexus. The assay is described as follows: Herbicidal activity by field soil treatment (Test example 2). Also on record: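 index 0 to 10 in 10% steps of herbicidal effect with 10 meaning complete death and 0 below 10%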. The conditions noted are these: 1000 g effective component per hectare, day 21 after the treatment. In a few lines:
(§2)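 Pre-emergence soil spray: wettable-powder formulation in water at 1000 g active ingredient per hectare (1000 L/ha) onto freshly sown, soil-covered seeds in field soil. Scoring of herbicidal effect by defined criteria 21 days post-treatment, plants kept in a greenhouse.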

The subject of assay [2] is Echinochloa crus-galli. The description is as above. Also on record: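 index 0 to 10 in 10% steps of herbicidal effect with 10 meaning complete death and 0 below 10%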. To be noted: 1000 g effective component per hectare, day 21 after the treatment. The method in brief: as §2
The subject of assay [3] is Indian millet. The description is as above. Also on record: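 index 0 to 10 in 10% steps of herbicidal effect with 10 meaning complete death and 0 below 10%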. To be noted: 1000 g effective component per hectare, day 21 after the treatment. The method in brief:
as §2

The test system of a further assay is foxtail. Described as above. To be noted: 1000 g effective component per hectare, day 21 after the treatment. In a few lines:
as §2

In assay [4] the test system is A. retroflexus. The assay is described as follows: Herbicidal activity by field foliage treatment (Test example 3). Also on record: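 index 0 to 10 in 10% steps of herbicidal effect with 10 meaning complete death and 0 below 10%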. The conditions noted are these: 1000 g effective component per hectare, day 14 after the treatment. The method in brief:
(§3)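 Scoring of herbicidal effect by set criteria took place 14 days post-spray. Plants had been raised 2 weeks in field soil under glass before whole-plant foliar application of diluted wettable powder (1000 g active component/ha, spray volume 1000 L/ha).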

Assay [5] relates to Indian millet. The description is as above. To be noted: 1000 g effective component per hectare, day 14 after the treatment. Also on record: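 index 0 to 10 in 10% steps of herbicidal effect with 10 meaning complete death and 0 below 10%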. The method in brief:
as §3

Assay [6] relates to Echinochloa crus-galli. Described as above. Also on record: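 index 0 to 10 in 10% steps of herbicidal effect with 10 meaning complete death and 0 below 10%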. To be noted: 1000 g effective component per hectare, day 14 after the treatment. The method in brief: (§4)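 Herbicidal effect was rated on day 14 following a foliar spray of 1000 g active ingredient per hectare, applied as water-diluted wettable powder at 1000 L/ha. Plants had been raised for 2 weeks in field soil under greenhouse conditions before spraying.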

A further assay has as its system Setaria viridis. The description is as above. To be noted: 1000 g effective component per hectare, day 14 after the treatment. The method in brief: as §4
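Throughout, for herbicidal effect index, Setaria viridis: index 0 to 10 in 10% steps of herbicidal effect with 10 meaning complete death and 0 below 10%.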

Consider `Cc1cccc(-n2c(=O)c(C(=O)C3=C(O)CCCC3=O)nn(C)c2=O)c1Cl` [I-127], for which the “Herbicidal effects index number, Echinochloa oryzicola” value in the assay with Echinochloa oryzicola is listed as 10. In addition, in the assay with Monochoria vaginalis, the “Herbicidal effects index number, Monochoria vaginalis” value is on record as 10. In addition, the “herbicidal effect index, S. juncoides Rocxb.” value in the assay with Scirpus juncoides Rocxb. is 10. In addition, the “herbicidal effect index, Amaranthus retroflexus” value in the assay with A. retroflexus [1] and in the assay with A. retroflexus [4] was 10 in each case. Further, the “herbicidal effect index, Echinochloa crus-galli” value in the assay on Echinochloa crus-galli [2] and with Echinochloa crus-galli [6] was 10 each time. Further, the “herbicidal effect index, Abutilon theophrasti” value in the assay on Indian millet [3] is 10; in the assay on Indian millet [5], 9. The results for the “herbicidal effect index, Setaria viridis” value in the assay on foxtail and with Setaria viridis were 8 and 10, respectively.
Take `CCCCn1c(=O)c(C(=O)C2=C(O)CCCC2=O)nn(C)c1=O` [I-5]: in the assay with Echinochloa oryzicola, the “Herbicidal effects index number, Echinochloa oryzicola” value was 10. Besides, in the assay with Monochoria vaginalis, the “Herbicidal effects index number, Monochoria vaginalis” value is 10. In addition, in the assay with Scirpus juncoides Rocxb., the “herbicidal effect index, S. juncoides Rocxb.” value was 10. Moreover, the “herbicidal effect index, Amaranthus retroflexus” value with A. retroflexus [1] and with A. retroflexus [4] was 10 each time. Further, the “herbicidal effect index, Echinochloa crus-galli” value with Echinochloa crus-galli [2] and with Echinochloa crus-galli [6] was 10 each time. Moreover, the “herbicidal effect index, Abutilon theophrasti” value in the assay with Indian millet [3] and in the assay on Indian millet [5] was 10 throughout. Also, the “herbicidal effect index, Setaria viridis” value is 7 with foxtail and 10 with Setaria viridis.
As for `Cn1nc(C(=O)C2=C(O)CCCC2=O)c(=O)n(-c2ccccc2C#N)c1=O` [I-72], the “Herbicidal effects index number, Echinochloa oryzicola” value in the assay with Echinochloa oryzicola turned out to be 10. The “Herbicidal effects index number, Monochoria vaginalis” value in the assay on Monochoria vaginalis turned out to be 10. Also, the “herbicidal effect index, S. juncoides Rocxb.” value with Scirpus juncoides Rocxb. amounted to 10. In addition, the “herbicidal effect index, Amaranthus retroflexus” value in the assay with A. retroflexus [1] and in the assay on A. retroflexus [4] was 10 each time. For the same molecule, the “herbicidal effect index, Echinochloa crus-galli” value in the assay with Echinochloa crus-galli [2] is 9; with Echinochloa crus-galli [6] it was 10. Besides, the “herbicidal effect index, Abutilon theophrasti” value with Indian millet [3] and in the assay on Indian millet [5] was 10 each time. In addition, the “herbicidal effect index, Setaria viridis” value in the assay on foxtail and with Setaria viridis was 10 in each case.
As for `Cn1nc(C(=O)C2=C(O)CCCC2=O)c(=O)n(-c2cccc(F)c2F)c1=O` [I-77], in the assay on Echinochloa oryzicola, the “Herbicidal effects index number, Echinochloa oryzicola” value came out at 10. Besides, the “Herbicidal effects index number, Monochoria vaginalis” value in the assay with Monochoria vaginalis amounted to 10. Further, in the assay with Scirpus juncoides Rocxb., the “herbicidal effect index, S. juncoides Rocxb.” value came out at 10. The “herbicidal effect index, Amaranthus retroflexus” value in the assay on A. retroflexus [1] and in the assay on A. retroflexus [4] was 10 throughout. The “herbicidal effect index, Echinochloa crus-galli” value is given as 9 in the assay on Echinochloa crus-galli [2] and 10 with Echinochloa crus-galli [6]. Further, the “herbicidal effect index, Abutilon theophrasti” value in the assay on Indian millet [3] and with Indian millet [5] was 10 throughout. For the same molecule, the “herbicidal effect index, Setaria viridis” value is recorded as 9 in the assay with foxtail and 10 with Setaria viridis.
In the case of `COc1ccc(Cl)cc1-n1c(=O)c(C(=O)C2=C(O)CCCC2=O)nn(C)c1=O` [I-134], the “Herbicidal effects index number, Echinochloa oryzicola” value with Echinochloa oryzicola was 10. For the same molecule, the “Herbicidal effects index number, Monochoria vaginalis” value with Monochoria vaginalis worked out at 10. Moreover, in the assay with Scirpus juncoides Rocxb., the “herbicidal effect index, S. juncoides Rocxb.” value was 10. The “herbicidal effect index, Amaranthus retroflexus” value in the assay with A. retroflexus [1] and in the assay with A. retroflexus [4] was 10 in each case. Moreover, the “herbicidal effect index, Echinochloa crus-galli” value in the assay on Echinochloa crus-galli [2] and in the assay on Echinochloa crus-galli [6] was 10 throughout. For the same molecule, the “herbicidal effect index, Abutilon theophrasti” value in the assay on Indian millet [3] and in the assay with Indian millet [5] was 10 throughout. The “herbicidal effect index, Setaria viridis” value with foxtail and with Setaria viridis was 10 throughout.
Turning to `Cn1nc(C(=O)C2=C(O)CCCC2=O)c(=O)n(-c2cccc(F)c2)c1=O` [I-55], the “Herbicidal effects index number, Echinochloa oryzicola” value in the assay on Echinochloa oryzicola is on record as 10. For the same molecule, the “Herbicidal effects index number, Monochoria vaginalis” value in the assay on Monochoria vaginalis was 10. Further, the “herbicidal effect index, S. juncoides Rocxb.” value in the assay on Scirpus juncoides Rocxb. came out at 10. The “herbicidal effect index, Amaranthus retroflexus” value with A. retroflexus [1] and with A. retroflexus [4] was 10 in each case. The “herbicidal effect index, Echinochloa crus-galli” value in the assay on Echinochloa crus-galli [2] and with Echinochloa crus-galli [6] was 10 in each case. Besides, the “herbicidal effect index, Abutilon theophrasti” value with Indian millet [3] and in the assay with Indian millet [5] was 10 throughout. Further, the “herbicidal effect index, Setaria viridis” value with foxtail and in the assay with Setaria viridis was 10 throughout.
Regarding `Cn1nc(C(=O)C2=C(O)CCCC2=O)c(=O)n(-c2ccc(F)cc2)c1=O` [I-56], the “Herbicidal effects index number, Echinochloa oryzicola” value in the assay with Echinochloa oryzicola was 10. Moreover, the “Herbicidal effects index number, Monochoria vaginalis” value with Monochoria vaginalis is 10. Besides, the “herbicidal effect index, S. juncoides Rocxb.” value in the assay on Scirpus juncoides Rocxb. stood at 10. For the same molecule, the “herbicidal effect index, Amaranthus retroflexus” value is recorded as 9 with A. retroflexus [1] and 10 in the assay with A. retroflexus [4]. The “herbicidal effect index, Echinochloa crus-galli” value with Echinochloa crus-galli [2] and in the assay with Echinochloa crus-galli [6] was 10 throughout. Also, the “herbicidal effect index, Abutilon theophrasti” value with Indian millet [3] and in the assay with Indian millet [5] was 10 throughout. Also, the “herbicidal effect index, Setaria viridis” value with foxtail and with Setaria viridis was 10 in each case.
`COc1ccc(-n2c(=O)c(C(=O)C3=C(O)CCCC3=O)nn(C)c2=O)cc1OC` [I-93]: the “Herbicidal effects index number, Echinochloa oryzicola” value with Echinochloa oryzicola stood at 8. In addition, in the assay on Monochoria vaginalis, the “Herbicidal effects index number, Monochoria vaginalis” value came out at 10. Moreover, in the assay with Scirpus juncoides Rocxb., the “herbicidal effect index, S. juncoides Rocxb.” value was found to be 10. For the same molecule, the “herbicidal effect index, Amaranthus retroflexus” value in the assay on A. retroflexus [1] and with A. retroflexus [4] was 10 each time. Moreover, the “herbicidal effect index, Echinochloa crus-galli” value came out at 7 with Echinochloa crus-galli [2] and 9 in the assay on Echinochloa crus-galli [6]. Also, the “herbicidal effect index, Abutilon theophrasti” value with Indian millet [3] and with Indian millet [5] was 10 each time. Further, the entries for the “herbicidal effect index, Setaria viridis” value in the assay with foxtail and in the assay on Setaria viridis were 6 and 9, respectively.
For the molecule `COc1cc(-n2c(=O)c(C(=O)C3=C(O)CCCC3=O)nn(C)c2=O)cc(OC)c1OC` [I-169], the “Herbicidal effects index number, Echinochloa oryzicola” value in the assay with Echinochloa oryzicola came to 10. Also, the “Herbicidal effects index number, Monochoria vaginalis” value with Monochoria vaginalis was found to be 10. The “herbicidal effect index, S. juncoides Rocxb.” value with Scirpus juncoides Rocxb. came to 10. The “herbicidal effect index, Amaranthus retroflexus” value was 10 with A. retroflexus [1] and 8 with A. retroflexus [4]. The figures for the “herbicidal effect index, Echinochloa crus-galli” value in the assay on Echinochloa crus-galli [2] and in the assay on Echinochloa crus-galli [6] were 10 and 9, respectively. Also, the “herbicidal effect index, Abutilon theophrasti” value with Indian millet [3] and in the assay on Indian millet [5] was 9 in each case. In addition, the “herbicidal effect index, Setaria viridis” value in the assay with foxtail stood at 10; in the assay with Setaria viridis, 9.
Consider `Cn1nc(C(=O)C2=C(O)CCCC2=O)c(=O)n(CC(F)(F)F)c1=O` [I-10], for which the “Herbicidal effects index number, Echinochloa oryzicola” value with Echinochloa oryzicola was 10. Further, the “Herbicidal effects index number, Monochoria vaginalis” value in the assay with Monochoria vaginalis was found to be 10. In addition, the “herbicidal effect index, S. juncoides Rocxb.” value with Scirpus juncoides Rocxb. was 10. The “herbicidal effect index, Amaranthus retroflexus” value in the assay on A. retroflexus [1] and with A. retroflexus [4] was 10 in each case. In addition, the “herbicidal effect index, Echinochloa crus-galli” value was 10 in the assay on Echinochloa crus-galli [2] and 8 with Echinochloa crus-galli [6]. In addition, the entries for the “herbicidal effect index, Abutilon theophrasti” value in the assay with Indian millet [3] and in the assay with Indian millet [5] were 10 and 9, respectively. Besides, the “herbicidal effect index, Setaria viridis” value is on record as 10 with foxtail and 7 in the assay with Setaria viridis.
For `Cn1nc(C(=O)C2=C(O)CCCC2=O)c(=O)n(-c2c(F)cccc2F)c1=O` [I-80], in the assay with Echinochloa oryzicola, the “Herbicidal effects index number, Echinochloa oryzicola” value is reported as 10. Moreover, in the assay with Monochoria vaginalis, the “Herbicidal effects index number, Monochoria vaginalis” value was found to be 10. Also, the “herbicidal effect index, S. juncoides Rocxb.” value in the assay on Scirpus juncoides Rocxb. came out at 10. Also, the “herbicidal effect index, Amaranthus retroflexus” value in the assay on A. retroflexus [1] and in the assay with A. retroflexus [4] was 10 each time. For the same molecule, the entries for the “herbicidal effect index, Echinochloa crus-galli” value with Echinochloa crus-galli [2] and with Echinochloa crus-galli [6] were 9 and 10, respectively. The “herbicidal effect index, Abutilon theophrasti” value in the assay with Indian millet [3] and in the assay on Indian millet [5] was 9 throughout. In addition, the “herbicidal effect index, Setaria viridis” value with foxtail was found to be 9; in the assay with Setaria viridis, 7.
Regarding `Cc1cc(Br)ccc1-n1c(=O)c(C(=O)C2=C(O)CCCC2=O)nn(C)c1=O` [I-282], the “Herbicidal effects index number, Echinochloa oryzicola” value in the assay on Echinochloa oryzicola turned out to be 10. In addition, the “Herbicidal effects index number, Monochoria vaginalis” value with Monochoria vaginalis is on record as 10. Further, the “herbicidal effect index, S. juncoides Rocxb.” value in the assay on Scirpus juncoides Rocxb. worked out at 10. Also, the “herbicidal effect index, Amaranthus retroflexus” value with A. retroflexus [1] was 10; in the assay on A. retroflexus [4] it was 8. The “herbicidal effect index, Echinochloa crus-galli” value in the assay with Echinochloa crus-galli [2] is on record as 10; in the assay on Echinochloa crus-galli [6], 8. The “herbicidal effect index, Abutilon theophrasti” value in the assay on Indian millet [3] and in the assay with Indian millet [5] was 9 each time. Besides, the “herbicidal effect index, Setaria viridis” value in the assay on foxtail amounted to 10; in the assay on Setaria viridis, 7.

Values taken from US8969554B2, “6-acyl-1,2,4-triazine-3,5-dione derivative and herbicides” (Kumiai Chemical Industry Co., Ltd., priority 2010, dated 2015).
